From the supplement of paper PMC6045584
± gives the standard deviation of the averaged measurements.

Assays:
[1] = compound: T1, Nc1nc2[nH]cnc2c(=S)[nH]1 [TIOGUANINE]; experiment: area under dose-response curve of surviving fraction (unscaled, Aref=0) (surviving fraction x log10(nM)); higher = more resistant; conditions: exposure time: 5 days; dose range 0.5-1000 nM
How it was run: (§1)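 Surviving fractions were fitted by 3-parameter logistic regression in the drc R package to give dose-response survival curves. They came from tumour cell lines treated for five days with eight inhibitor concentrations from 0.5 to 1000 nM and read by CellTiter-Glo luminescence against DMSO-only wells. The area under the curve is the unscaled activity area. It was calculated over log10 dose with Aref = 0.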

[2] = compound: T2, CNC(=O)c1ccc(N2C(=S)N(c3ccc(C#N)c(C(F)(F)F)c3)C(=O)C2(C)C)cc1F [MDV3100]; experiment: as above; conditions: exposure time: 5 days; dose range 0.5-1000 nM
How it was run: as §1

[3] = compound: Cn1cc(C2=Nc3cc(NC(=O)C(N)C4CCCCC4)cc4c3C2=CNNC4=O)cn1; experiment: as above; conditions: exposure time: 5 days; dose range 0.5-1000 nM
How it was run: as §1

[4] = compound: T3, CC1(C)CC(=O)c2c(C(F)(F)F)nn(-c3ccc(C(N)=O)c(N[C@H]4CC[C@H](OC(=O)CN)CC4)c3)c2C1 [SNX-5422]; experiment: as above; conditions: exposure time: 5 days; dose range 0.5-1000 nM
How it was run: as §1

[5] = compound: T4, CC[C@@H]1C(=O)N(C)c2cnc(Nc3ccc(C(=O)NC4CCN(C)CC4)cc3OC)nc2N1C1CCCC1 [BI-2536]; experiment: as above; conditions: exposure time: 5 days; dose range 0.5-1000 nM
How it was run: as §1

[6] = compound: T5, CN(C)C/C=C/C(=O)Nc1cc2c(Nc3ccc(F)c(Cl)c3)ncnc2cc1O[C@H]1CCOC1 [AFATINIB]; experiment: as above; conditions: exposure time: 5 days; dose range 0.5-1000 nM
How it was run: as §1

[7] = compound: T6, C=CC(=O)Nc1cc2c(Nc3ccc(F)c(Cl)c3)ncnc2cc1OCCCN1CCOCC1 [CANERTINIB]; experiment: as above; conditions: exposure time: 5 days; dose range 0.5-1000 nM
How it was run: as §1

[8] = compound: T7, CCCCCCCCCCCCCCCC(=O)Nc1ccn([C@@H]2O[C@H](CO)[C@@H](O)[C@@H]2C#N)c(=O)n1 [SAPACITABINE]; experiment: as above; conditions: exposure time: 5 days; dose range 0.5-1000 nM
How it was run: as §1

[9] = compound: T1, TIOGUANINE; experiment: surviving fraction relative to DMSO-only wells; higher = less growth inhibition; conditions: exposure time: 5 days
How it was run: (§2)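 Tumour cell lines were grown to log phase and seeded at 250–500 cells per well in 384-well plates. They were exposed continuously to inhibitors at 0.5, 1, 5, 10, 50, 100, 500 and 1000 nM for five days, beginning 24 hours after seeding. Surviving fraction is CellTiter-Glo luminescence normalised to the median of DMSO-only wells.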

[10] = compound: T2, MDV3100; experiment: as above; conditions: exposure time: 5 days
How it was run: as §2

[11] = compound: Cn1cc(C2=Nc3cc(NC(=O)C(N)C4CCCCC4)cc4c3C2=CNNC4=O)cn1; experiment: as above; conditions: exposure time: 5 days
How it was run: as §2

[12] = compound: T3, SNX-5422; experiment: as above; conditions: exposure time: 5 days
How it was run: as §2

[13] = compound: T4, BI-2536; experiment: as above; conditions: exposure time: 5 days
How it was run: as §2

[14] = compound: T5, AFATINIB; experiment: as above; conditions: exposure time: 5 days
How it was run: as §2

[15] = compound: T6, CANERTINIB; experiment: as above; conditions: exposure time: 5 days
How it was run: as §2

[16] = compound: T7, SAPACITABINE; experiment: as above; conditions: exposure time: 5 days
How it was run: as §2

HS57T LUNG
area under dose-response curve [1]: 3.23 | area under dose-response curve [2]: 3.03 | area under dose-response curve [3]: 2.49 | area under dose-response curve [4]: 2.06 | area under dose-response curve [5]: 1.08 | area under dose-response curve [6]: 3.15 | area under dose-response curve [7]: 2.92 | area under dose-response curve [8]: 2.37

NOS1 BONE
surviving fraction ([9]; 0.5 nM): 1.12 ± 0.037 | surviving fraction ([9]; 1 nM): 1.14 ± 0.028 | surviving fraction ([9]; 5 nM): 1.15 ± 0.093 | surviving fraction ([9]; 10 nM): 1.17 ± 0.075 | surviving fraction ([9]; 50 nM): 1.23 ± 0.1 | surviving fraction ([9]; 100 nM): 1.19 ± 0.058 | surviving fraction ([9]; 500 nM): 1.06 ± 0.099 | surviving fraction ([9]; 1000 nM): 1.05 ± 0.065 | surviving fraction ([10]; 0.5 nM): 1.18 ± 0.11 | surviving fraction ([10]; 1 nM): 1 ± 0.043 | surviving fraction ([10]; 5 nM): 1.11 ± 0.069 | surviving fraction ([10]; 10 nM): 1.1 ± 0.2 | surviving fraction ([10]; 50 nM): 1.04 ± 0.062 | surviving fraction ([10]; 100 nM): 1.16 ± 0.086 | surviving fraction ([10]; 500 nM): 0.972 ± 0.073 | surviving fraction ([10]; 1000 nM): 1.03 ± 0.027 | surviving fraction ([11]; 0.5 nM): 1 ± 0.16 | surviving fraction ([11]; 1 nM): 0.948 ± 0.081 | surviving fraction ([11]; 5 nM): 1.11 ± 0.1 | surviving fraction ([11]; 10 nM): 1.05 ± 0.1 | surviving fraction ([11]; 50 nM): 0.813 ± 0.075 | surviving fraction ([11]; 100 nM): 0.872 ± 0.064 | surviving fraction ([11]; 500 nM): 0.339 ± 0.009 | surviving fraction ([11]; 1000 nM): 0.195 ± 0.013 | surviving fraction ([12]; 0.5 nM): 1.1 ± 0.11 | surviving fraction ([12]; 1 nM): 1.08 ± 0.052 | surviving fraction ([12]; 5 nM): 1.16 ± 0.067 | surviving fraction ([12]; 10 nM): 0.947 ± 0.056 | surviving fraction ([12]; 50 nM): 0.451 ± 0.037 | surviving fraction ([12]; 100 nM): 0.276 ± 0.012 | surviving fraction ([12]; 500 nM): 0.113 ± 0.0076 | surviving fraction ([12]; 1000 nM): 0.117 ± 0.014 | surviving fraction ([13]; 0.5 nM): 1.01 ± 0.12 | surviving fraction ([13]; 1 nM): 0.839 ± 0.089 | surviving fraction ([13]; 5 nM): 0.338 ± 0.056 | surviving fraction ([13]; 10 nM): 0.296 ± 0.046 | surviving fraction ([13]; 50 nM): 0.341 ± 0.074 | surviving fraction ([13]; 100 nM): 0.387 ± 0.002 | surviving fraction ([13]; 500 nM): 0.334 ± 0.034 | surviving fraction ([13]; 1000 nM): 0.328 ± 0.02 | surviving fraction ([14]; 0.5 nM): 0.993 ± 0.2 | surviving fraction ([14]; 1 nM): 0.997 ± 0.014 | surviving fraction ([14]; 5 nM): 1.05 ± 0.066 | surviving fraction ([14]; 10 nM): 0.947 ± 0.04 | surviving fraction ([14]; 50 nM): 1.13 ± 0.11 | surviving fraction ([14]; 100 nM): 0.983 ± 0.1 | surviving fraction ([14]; 500 nM): 0.238 ± 0.019 | surviving fraction ([14]; 1000 nM): 0.096 ± 0.0027 | surviving fraction ([15]; 0.5 nM): 0.909 ± 0.16 | surviving fraction ([15]; 1 nM): 0.939 ± 0.12 | surviving fraction ([15]; 5 nM): 0.957 ± 0.094 | surviving fraction ([15]; 10 nM): 1.04 ± 0.14 | surviving fraction ([15]; 50 nM): 1.04 ± 0.11 | surviving fraction ([15]; 100 nM): 1.1 ± 0.1 | surviving fraction ([15]; 500 nM): 0.585 ± 0.052 | surviving fraction ([15]; 1000 nM): 0.333 ± 0.02 | surviving fraction ([16]; 0.5 nM): 0.853 ± 0.16 | surviving fraction ([16]; 1 nM): 0.774 ± 0.081 | surviving fraction ([16]; 5 nM): 0.938 ± 0.16 | surviving fraction ([16]; 10 nM): 0.863 ± 0.062 | surviving fraction ([16]; 50 nM): 0.968 ± 0.12 | surviving fraction ([16]; 100 nM): 0.973 ± 0.13 | surviving fraction ([16]; 500 nM): 0.811 ± 0.059 | surviving fraction ([16]; 1000 nM): 0.764 ± 0.14 | area under dose-response curve [1]: 3.79 | area under dose-response curve [3]: 2.73 | area under dose-response curve [4]: 2.09 | area under dose-response curve [5]: 1.35 | area under dose-response curve [6]: 2.86 | area under dose-response curve [7]: 3.08 | area under dose-response curve [8]: 2.87
